Experimental data: ChEMBL document CHEMBL5678818, “Discovery of potent SOS1 inhibitors that block RAS activation via disruption of the RAS-SOS1 interaction” (Proc Natl Acad Sci U S A, 2019)

Legend:
[1] = system: Phosphatidylinositol 4,5-bisphosphate 3-kinase catalytic subunit alpha isoform (Homo sapiens), P42336 [H1047L]; assay: Inhibition of PIK3CA H1047L mutant (unknown origin) assessed as residual activity at 100 nM by KINOMEscan analysis relative to control
[2] = molecular target: Casein kinase I isoform delta (Homo sapiens) (UniProt P48730); assay: Inhibition of CSNK1D (unknown origin) assessed as residual activity at 100 nM by KINOMEscan analysis relative to control
[3] = molecular target: Tyrosine-protein kinase Tec (Homo sapiens) (UniProt P42680); assay: Inhibition of TEC (unknown origin) assessed as residual activity at 100 nM by KINOMEscan analysis relative to control
[4] = molecular target: Activin receptor type-2A (Homo sapiens) (UniProt P27037); assay: Inhibition of ACVR2A (unknown origin) assessed as residual activity at 100 nM by KINOMEscan analysis relative to control
[5] = molecular target: T1, Cytoplasmic tyrosine-protein kinase BMX (Homo sapiens) (UniProt P51813); assay: Inhibition of BMX (unknown origin) assessed as residual activity at 100 nM by KINOMEscan analysis relative to control
T1 sequence (whole entry): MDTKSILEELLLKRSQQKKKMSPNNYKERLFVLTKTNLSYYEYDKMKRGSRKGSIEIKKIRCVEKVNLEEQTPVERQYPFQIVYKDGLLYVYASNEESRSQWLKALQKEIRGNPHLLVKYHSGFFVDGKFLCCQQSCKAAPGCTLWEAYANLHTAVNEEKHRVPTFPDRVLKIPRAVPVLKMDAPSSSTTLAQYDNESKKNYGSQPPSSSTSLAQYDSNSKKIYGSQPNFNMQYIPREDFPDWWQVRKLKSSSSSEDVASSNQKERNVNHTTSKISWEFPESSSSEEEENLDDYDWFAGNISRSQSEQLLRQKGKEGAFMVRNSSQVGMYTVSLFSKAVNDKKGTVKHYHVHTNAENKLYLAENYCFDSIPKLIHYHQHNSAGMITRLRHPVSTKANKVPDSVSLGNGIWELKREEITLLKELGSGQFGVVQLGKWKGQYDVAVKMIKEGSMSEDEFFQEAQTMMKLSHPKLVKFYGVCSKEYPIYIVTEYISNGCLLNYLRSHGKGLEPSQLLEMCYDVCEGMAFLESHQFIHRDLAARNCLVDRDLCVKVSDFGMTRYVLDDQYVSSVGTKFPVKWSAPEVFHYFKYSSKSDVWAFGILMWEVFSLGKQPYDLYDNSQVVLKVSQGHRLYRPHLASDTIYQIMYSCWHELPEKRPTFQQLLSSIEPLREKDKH

[6] = molecular target: Receptor-interacting serine/threonine-protein kinase 2 (Homo sapiens) (UniProt O43353); assay: Inhibition of RIPK2 (unknown origin) assessed as residual activity at 100 nM by KINOMEscan analysis relative to control
[7] = molecular target: T2, Mitogen-activated protein kinase 13 (Homo sapiens) (UniProt O15264); assay: Inhibition of p38-delta (unknown origin) assessed as residual activity at 100 nM by KINOMEscan analysis relative to control
T2 sequence (whole entry): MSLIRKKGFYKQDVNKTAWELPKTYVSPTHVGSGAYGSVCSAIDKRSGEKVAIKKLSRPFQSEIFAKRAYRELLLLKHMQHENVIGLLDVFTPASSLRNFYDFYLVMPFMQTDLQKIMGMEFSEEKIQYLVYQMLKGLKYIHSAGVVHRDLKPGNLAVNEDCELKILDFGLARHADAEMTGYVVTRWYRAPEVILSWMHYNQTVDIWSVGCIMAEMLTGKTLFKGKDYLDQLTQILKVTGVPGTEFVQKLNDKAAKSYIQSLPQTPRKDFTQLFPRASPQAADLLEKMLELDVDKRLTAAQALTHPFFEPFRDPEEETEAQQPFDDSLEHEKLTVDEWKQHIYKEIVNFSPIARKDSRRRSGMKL

[8] = molecular target: Hepatocyte growth factor receptor (Homo sapiens) (UniProt P08581); assay: Inhibition of MET (unknown origin) assessed as residual activity at 100 nM by KINOMEscan analysis relative to control
[9] = system: Phosphatidylinositol 4,5-bisphosphate 3-kinase catalytic subunit alpha isoform (Homo sapiens), P42336 [E545A]; assay: Inhibition of PIK3CA E545A mutant (unknown origin) assessed as residual activity at 100 nM by KINOMEscan analysis relative to control
[10] = system: Epidermal growth factor receptor (Homo sapiens), P00533 [UNDEFINED MUTATION]; assay: Inhibition of EGFR E746-A750del mutant (unknown origin) assessed as residual activity at 100 nM by KINOMEscan analysis relative to control
[11] = molecular target: Bone morphogenetic protein receptor type-1A (Homo sapiens) (UniProt P36894); assay: Inhibition of BMPR1A (unknown origin) assessed as residual activity at 100 nM by KINOMEscan analysis relative to control
[12] = molecular target: Tyrosine-protein kinase BTK (Homo sapiens) (UniProt Q06187); assay: Inhibition of BTK (unknown origin) assessed as residual activity at 100 nM by KINOMEscan analysis relative to control
[13] = molecular target: T3, Receptor-interacting serine/threonine-protein kinase 4 (Homo sapiens) (UniProt P57078); assay: Inhibition of RIPK4 (unknown origin) assessed as residual activity at 100 nM by KINOMEscan analysis relative to control
T3 sequence (whole entry): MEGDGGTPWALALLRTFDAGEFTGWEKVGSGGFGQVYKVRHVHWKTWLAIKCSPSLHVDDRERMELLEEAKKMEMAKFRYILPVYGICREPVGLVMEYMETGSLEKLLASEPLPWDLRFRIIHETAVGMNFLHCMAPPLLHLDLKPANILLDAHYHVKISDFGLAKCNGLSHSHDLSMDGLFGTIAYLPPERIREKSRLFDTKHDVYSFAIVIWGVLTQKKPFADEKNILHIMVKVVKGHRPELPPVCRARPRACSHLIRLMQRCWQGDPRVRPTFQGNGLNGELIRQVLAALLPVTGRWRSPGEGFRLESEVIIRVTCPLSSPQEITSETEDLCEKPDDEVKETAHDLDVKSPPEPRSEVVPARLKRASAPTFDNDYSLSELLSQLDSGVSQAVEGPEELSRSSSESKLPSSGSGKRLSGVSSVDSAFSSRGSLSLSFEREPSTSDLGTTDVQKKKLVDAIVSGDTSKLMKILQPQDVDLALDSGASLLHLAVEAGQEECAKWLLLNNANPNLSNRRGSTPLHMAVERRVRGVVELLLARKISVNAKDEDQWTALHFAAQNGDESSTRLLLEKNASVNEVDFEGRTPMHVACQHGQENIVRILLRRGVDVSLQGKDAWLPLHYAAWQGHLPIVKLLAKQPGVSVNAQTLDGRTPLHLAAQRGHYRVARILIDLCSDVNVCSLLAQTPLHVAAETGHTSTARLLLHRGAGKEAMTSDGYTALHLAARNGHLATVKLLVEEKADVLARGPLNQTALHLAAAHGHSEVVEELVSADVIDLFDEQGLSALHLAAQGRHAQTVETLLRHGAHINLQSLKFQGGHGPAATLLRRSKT

Sequence of Phosphatidylinositol 4,5-bisphosphate 3-kinase catalytic subunit alpha isoform (Homo sapiens), P42336 [E545A] (P42336 whole entry E545A, canonical isoform): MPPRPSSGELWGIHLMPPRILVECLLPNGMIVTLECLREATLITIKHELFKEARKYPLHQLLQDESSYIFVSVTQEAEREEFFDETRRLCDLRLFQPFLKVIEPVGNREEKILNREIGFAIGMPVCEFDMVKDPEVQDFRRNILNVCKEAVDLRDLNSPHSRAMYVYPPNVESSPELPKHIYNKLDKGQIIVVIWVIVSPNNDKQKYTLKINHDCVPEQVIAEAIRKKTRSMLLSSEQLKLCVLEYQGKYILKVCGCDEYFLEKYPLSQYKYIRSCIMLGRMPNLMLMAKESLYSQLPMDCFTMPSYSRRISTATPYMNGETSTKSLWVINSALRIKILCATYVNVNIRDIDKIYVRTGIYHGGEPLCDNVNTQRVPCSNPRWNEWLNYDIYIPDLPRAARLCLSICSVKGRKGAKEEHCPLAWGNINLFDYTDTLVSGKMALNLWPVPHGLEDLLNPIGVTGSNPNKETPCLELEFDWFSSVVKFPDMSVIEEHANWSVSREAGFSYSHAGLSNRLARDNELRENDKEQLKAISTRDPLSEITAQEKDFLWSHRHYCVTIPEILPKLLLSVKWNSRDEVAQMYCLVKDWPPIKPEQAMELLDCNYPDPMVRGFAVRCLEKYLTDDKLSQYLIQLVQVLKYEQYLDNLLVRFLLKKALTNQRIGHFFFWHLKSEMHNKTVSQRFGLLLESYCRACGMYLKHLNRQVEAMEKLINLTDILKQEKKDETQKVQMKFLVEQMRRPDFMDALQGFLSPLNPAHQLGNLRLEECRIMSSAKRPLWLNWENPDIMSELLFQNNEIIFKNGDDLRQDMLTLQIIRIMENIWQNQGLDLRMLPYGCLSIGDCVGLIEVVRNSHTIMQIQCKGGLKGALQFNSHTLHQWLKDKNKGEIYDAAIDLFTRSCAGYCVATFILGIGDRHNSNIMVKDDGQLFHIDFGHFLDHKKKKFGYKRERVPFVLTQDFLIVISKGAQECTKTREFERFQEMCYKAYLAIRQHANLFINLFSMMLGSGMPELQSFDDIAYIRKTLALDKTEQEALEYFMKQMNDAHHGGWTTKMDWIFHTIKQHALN
Sequence of Receptor-interacting serine/threonine-protein kinase 2 (Homo sapiens) (O43353 whole entry): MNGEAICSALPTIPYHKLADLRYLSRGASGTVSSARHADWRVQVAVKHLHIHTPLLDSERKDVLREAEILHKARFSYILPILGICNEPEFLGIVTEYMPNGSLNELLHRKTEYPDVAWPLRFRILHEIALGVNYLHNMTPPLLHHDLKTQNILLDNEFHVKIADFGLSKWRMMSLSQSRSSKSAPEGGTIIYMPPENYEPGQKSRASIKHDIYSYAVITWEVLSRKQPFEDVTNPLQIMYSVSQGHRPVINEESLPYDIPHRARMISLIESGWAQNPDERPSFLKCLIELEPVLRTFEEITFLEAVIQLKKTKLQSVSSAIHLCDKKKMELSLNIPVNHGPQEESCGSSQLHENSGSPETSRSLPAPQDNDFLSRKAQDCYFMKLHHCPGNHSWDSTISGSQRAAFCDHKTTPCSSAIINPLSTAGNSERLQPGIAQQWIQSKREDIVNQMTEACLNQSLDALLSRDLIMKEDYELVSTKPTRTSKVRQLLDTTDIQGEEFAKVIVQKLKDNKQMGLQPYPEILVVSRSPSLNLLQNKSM
Sequence of Phosphatidylinositol 4,5-bisphosphate 3-kinase catalytic subunit alpha isoform (Homo sapiens), P42336 [H1047L] (P42336 whole entry H1047L, canonical isoform): as the sequence (P42336 whole entry E545A, canonical isoform) above, with A545E, H1047L counted along it
Sequence of Tyrosine-protein kinase BTK (Homo sapiens) (Q06187 whole entry): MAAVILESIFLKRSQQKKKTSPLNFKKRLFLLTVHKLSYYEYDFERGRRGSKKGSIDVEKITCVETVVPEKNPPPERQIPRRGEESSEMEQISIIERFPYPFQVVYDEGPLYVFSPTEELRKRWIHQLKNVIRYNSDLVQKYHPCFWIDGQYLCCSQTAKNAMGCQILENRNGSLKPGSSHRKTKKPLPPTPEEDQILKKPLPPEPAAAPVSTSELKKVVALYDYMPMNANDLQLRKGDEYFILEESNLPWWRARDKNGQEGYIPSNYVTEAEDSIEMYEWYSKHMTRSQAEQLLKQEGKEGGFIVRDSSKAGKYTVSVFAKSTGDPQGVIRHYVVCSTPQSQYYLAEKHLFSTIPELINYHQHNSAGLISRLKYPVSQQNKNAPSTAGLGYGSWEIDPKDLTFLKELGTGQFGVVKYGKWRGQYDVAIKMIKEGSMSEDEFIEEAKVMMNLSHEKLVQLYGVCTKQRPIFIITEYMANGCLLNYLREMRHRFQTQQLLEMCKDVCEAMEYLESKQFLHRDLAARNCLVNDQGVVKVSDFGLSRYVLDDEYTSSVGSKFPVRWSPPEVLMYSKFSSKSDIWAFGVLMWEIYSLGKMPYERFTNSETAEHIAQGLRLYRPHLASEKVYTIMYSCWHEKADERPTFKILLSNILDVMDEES
Sequence of Epidermal growth factor receptor (Homo sapiens), P00533 [UNDEFINED MUTATION] (P00533 whole entry, looked up, stated change not applied): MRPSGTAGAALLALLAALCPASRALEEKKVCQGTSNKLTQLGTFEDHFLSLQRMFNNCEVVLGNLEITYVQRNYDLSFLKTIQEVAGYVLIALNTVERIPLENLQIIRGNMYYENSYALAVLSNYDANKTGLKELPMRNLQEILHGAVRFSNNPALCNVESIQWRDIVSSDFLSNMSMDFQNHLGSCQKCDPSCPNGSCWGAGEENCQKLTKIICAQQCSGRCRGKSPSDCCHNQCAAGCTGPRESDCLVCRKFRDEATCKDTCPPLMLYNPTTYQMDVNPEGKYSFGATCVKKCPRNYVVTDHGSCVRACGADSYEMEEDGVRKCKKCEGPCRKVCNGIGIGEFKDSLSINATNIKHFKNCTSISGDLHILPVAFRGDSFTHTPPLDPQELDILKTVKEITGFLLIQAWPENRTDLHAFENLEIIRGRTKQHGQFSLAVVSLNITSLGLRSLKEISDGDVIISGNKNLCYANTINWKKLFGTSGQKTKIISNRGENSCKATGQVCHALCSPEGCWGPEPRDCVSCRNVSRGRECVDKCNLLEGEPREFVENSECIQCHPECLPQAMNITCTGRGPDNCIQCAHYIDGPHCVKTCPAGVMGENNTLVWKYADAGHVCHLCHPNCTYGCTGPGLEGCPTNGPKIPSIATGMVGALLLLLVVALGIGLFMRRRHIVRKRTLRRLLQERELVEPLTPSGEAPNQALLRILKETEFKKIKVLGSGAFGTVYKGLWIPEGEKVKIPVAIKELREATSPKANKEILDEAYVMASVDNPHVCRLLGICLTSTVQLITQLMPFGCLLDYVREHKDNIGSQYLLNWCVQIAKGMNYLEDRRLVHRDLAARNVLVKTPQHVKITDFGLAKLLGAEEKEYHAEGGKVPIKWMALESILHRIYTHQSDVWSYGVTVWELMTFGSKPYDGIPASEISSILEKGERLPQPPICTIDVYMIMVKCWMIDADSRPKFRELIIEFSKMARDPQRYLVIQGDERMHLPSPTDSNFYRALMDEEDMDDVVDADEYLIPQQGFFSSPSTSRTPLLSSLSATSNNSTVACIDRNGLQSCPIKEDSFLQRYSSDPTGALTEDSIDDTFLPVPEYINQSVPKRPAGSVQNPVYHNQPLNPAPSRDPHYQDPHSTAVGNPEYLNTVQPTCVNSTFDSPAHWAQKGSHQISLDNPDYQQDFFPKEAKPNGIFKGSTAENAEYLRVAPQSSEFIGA
Sequence of Hepatocyte growth factor receptor (Homo sapiens) (P08581 whole entry, canonical isoform): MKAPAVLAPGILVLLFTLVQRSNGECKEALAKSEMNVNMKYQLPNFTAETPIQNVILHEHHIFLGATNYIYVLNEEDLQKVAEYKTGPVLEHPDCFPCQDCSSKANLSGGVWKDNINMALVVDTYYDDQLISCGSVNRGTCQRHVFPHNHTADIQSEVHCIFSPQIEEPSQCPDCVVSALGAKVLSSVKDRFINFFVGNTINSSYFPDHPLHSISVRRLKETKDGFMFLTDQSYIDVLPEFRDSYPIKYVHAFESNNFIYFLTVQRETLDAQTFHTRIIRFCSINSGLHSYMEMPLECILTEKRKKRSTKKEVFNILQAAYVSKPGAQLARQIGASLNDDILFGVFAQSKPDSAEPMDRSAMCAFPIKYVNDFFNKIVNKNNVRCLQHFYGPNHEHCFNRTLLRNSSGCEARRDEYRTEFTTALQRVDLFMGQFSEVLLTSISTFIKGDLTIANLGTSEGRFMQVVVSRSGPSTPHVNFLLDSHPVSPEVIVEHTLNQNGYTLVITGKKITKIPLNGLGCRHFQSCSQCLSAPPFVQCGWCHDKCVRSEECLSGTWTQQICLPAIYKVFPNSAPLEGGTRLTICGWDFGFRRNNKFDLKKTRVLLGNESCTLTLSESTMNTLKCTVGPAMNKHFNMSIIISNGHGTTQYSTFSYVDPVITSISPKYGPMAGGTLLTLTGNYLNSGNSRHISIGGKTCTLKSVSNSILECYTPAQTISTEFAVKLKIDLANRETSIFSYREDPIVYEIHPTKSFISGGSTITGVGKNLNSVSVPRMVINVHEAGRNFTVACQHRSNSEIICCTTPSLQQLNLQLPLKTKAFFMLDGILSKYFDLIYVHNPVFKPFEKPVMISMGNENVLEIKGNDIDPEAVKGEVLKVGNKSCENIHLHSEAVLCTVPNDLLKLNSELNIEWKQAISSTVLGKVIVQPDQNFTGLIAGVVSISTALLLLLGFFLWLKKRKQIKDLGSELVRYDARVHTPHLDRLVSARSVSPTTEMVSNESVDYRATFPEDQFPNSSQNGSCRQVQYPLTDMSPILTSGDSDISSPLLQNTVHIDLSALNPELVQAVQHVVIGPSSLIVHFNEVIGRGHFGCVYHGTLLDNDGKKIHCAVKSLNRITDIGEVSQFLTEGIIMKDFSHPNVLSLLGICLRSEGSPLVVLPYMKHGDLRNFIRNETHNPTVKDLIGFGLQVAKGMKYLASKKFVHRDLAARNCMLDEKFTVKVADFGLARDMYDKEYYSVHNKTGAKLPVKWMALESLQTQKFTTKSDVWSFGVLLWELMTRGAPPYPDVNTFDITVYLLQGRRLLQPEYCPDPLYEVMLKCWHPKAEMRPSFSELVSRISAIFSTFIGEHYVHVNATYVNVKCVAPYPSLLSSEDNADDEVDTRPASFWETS

COc1cc2ncnc(N[C@H](C)c3cccc4ccccc34)c2cc1OC
Activity [1]: 73% | Activity [2]: 97% | Activity [3]: 87% | Activity [4]: 94% | Activity [5]: 79% | Activity [6]: 84% | Activity [7]: 100% | Activity [8]: 100% | Activity [9]: 93% | Activity [10]: 88% | Activity [11]: 71% | Activity [12]: 95% | Activity [13]: 77%
